The test system of assay [1] is Enterococcus faecalis. Description: (§1) The compound was tested for the inhibition of D-alanine:D-alanine ligase from streptococcus faecalis.
Assay [2] is described as follows: as §1. On the set-up: species or system Enterococcus faecalis.

As to `C=CC(N)P(=O)(O)O` (configuration not stated), the Km (as a rule, the substrate concentration at which the rate is half of its maximum) in assay [1] amounted to 7 mM. The affinity in assay [2] corresponds to a Ki of 5 mM.

The values above are taken from ChEMBL document CHEMBL1123160, “(1-Amino-2-propenyl) phosphonic acid, an inhibitor of alanine racemase and D-alanine:D-alanine ligase” (J Med Chem, 1986).
